Reference: article PMC5520492, “Inhibition of DNA2 nuclease as a therapeutic strategy targeting replication stress in cancer cells” (Oncogenesis, 2017)

Target: T1, hDNA2 (Homo sapiens, UniProt P51530)
T1 construct: made in house
T1 sequence (P51530 1-1060): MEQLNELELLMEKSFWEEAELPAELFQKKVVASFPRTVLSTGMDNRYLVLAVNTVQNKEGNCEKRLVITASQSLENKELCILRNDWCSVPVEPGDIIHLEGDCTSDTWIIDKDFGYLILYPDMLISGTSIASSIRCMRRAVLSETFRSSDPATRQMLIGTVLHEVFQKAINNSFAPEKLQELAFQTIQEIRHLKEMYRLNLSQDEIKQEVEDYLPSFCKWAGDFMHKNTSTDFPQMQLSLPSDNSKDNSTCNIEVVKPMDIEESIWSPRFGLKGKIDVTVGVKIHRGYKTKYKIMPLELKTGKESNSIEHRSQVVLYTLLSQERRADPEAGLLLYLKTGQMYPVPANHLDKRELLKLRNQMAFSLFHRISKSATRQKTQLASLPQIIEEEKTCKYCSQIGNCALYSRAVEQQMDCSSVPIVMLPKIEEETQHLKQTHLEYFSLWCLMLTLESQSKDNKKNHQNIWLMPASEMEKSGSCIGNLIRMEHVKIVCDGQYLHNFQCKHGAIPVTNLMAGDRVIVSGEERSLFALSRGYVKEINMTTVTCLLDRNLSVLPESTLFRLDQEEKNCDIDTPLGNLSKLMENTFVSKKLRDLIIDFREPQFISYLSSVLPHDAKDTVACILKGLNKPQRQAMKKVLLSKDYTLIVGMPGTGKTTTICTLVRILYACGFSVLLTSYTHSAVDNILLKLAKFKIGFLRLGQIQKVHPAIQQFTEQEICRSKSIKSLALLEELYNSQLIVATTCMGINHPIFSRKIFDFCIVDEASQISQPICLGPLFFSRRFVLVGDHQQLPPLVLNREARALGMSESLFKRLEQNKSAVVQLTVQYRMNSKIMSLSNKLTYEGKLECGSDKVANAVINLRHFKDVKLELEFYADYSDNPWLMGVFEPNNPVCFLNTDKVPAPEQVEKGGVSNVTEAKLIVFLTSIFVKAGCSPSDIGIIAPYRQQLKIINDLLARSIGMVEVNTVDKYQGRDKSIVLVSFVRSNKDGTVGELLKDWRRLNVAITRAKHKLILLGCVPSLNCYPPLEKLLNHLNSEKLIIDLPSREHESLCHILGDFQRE
Assay: 5' flap processing by hDNA2
Assay type: biochemical
Conditions: DNA2 […], Y DNA substrate 5 nM ends
Description: Nuclease assays were performed in buffer R (20 mM Na-HEPES pH 7.5, 1 mM ATP, 0.1 mM DTT, 100 μg/ml bovine serum albumin, 0.05% Triton X-100, 2 mM MgCl2, 100 mM KCl) and contained 0.5 nM ends (2-kb substrate) or 5 nM ends (the ssDNA oligonucleotide PSOL6929) of DNA. Reactions containing Bloom syndrome also included an ATP regenerating system consisting of 10 mM creatine phosphate and 50 μg/ml creatine kinase. In control reactions, DMSO was used in place of the inhibitor. Reactions with DNA2 alone were incubated at 30 °C, and those with DNA2-Bloom syndrome-Replication protein A and EXO1 were incubated at 37 °C for the indicated times. […] Gels were dried onto DEAE paper on top of Whatman filter paper (GE, Issaquah, WA, USA) and then analyzed in a BioRad Personal Molecular Imager FX phosphorimager. Band intensity was quantified using Image Lab software (Bio-Rad, Hercules, CA, USA). The fraction of DNA substrate digested was determined by measuring the amount of substrate remaining and normalizing to the total substrate in the negative control lane containing no protein.
Figure S2. […] (b) Plots showing quantitation of the experiments shown in a. […] (d) Plots showing quantitation of the experiments shown in c. […] (f) Plot showing quantitation of the experiment in e. […]

Row | Structure (SMILES) | 5′ flap processing by hDNA2
1 | NC1=C(Br)C(=O)c2ncccc2C1=O [NSC-105808, 6-amino-7-bromoquinoline-5,8-dione] | inhibited
2 | O=C1C(=O)c2cc([N+](=O)[O-])ccc2-c2ccccc21 [NSC-5195242, 2-nitrophenanthrene-9,10-dione] | inhibited
